Data as given in paper PMC5954419 (Biochemistry, 2017).

Target: T1, MGST1 (unactivated) (Rattus norvegicus, UniProt P08011)
T1 sequence (P08011 2-155): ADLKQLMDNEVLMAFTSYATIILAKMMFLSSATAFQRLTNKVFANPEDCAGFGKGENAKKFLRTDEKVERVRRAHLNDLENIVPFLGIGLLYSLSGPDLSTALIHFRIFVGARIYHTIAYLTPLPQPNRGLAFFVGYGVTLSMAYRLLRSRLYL
Assay: steady-state spectrophotometric product formation
Format: biochemical
Details: 5 mM GSH, 5 °C, pH 6.5, 0.1 M potassium phosphate, 0.1% Triton X-100; unactivated enzyme

Compound `O=[N+]([O-])c1ccc(Cl)c([N+](=O)[O-])c1` [CDNB, 1-Chloro-2,4-dinitrobenzene] has a Km of 11 ± 2 µM.
